Values quoted from earlier work as cited in PMC7373161, “Impact of Food and Drink Administration Vehicles on Paediatric Formulation Performance: Part 1—Effects on Solubility of Poorly Soluble Drugs” (AAPS PharmSciTech, 2020).

Nc1ccc(O)c(C(=O)O)c1 [mesalazine]
isoelectric point (pI): 4.3 pH
